# Measurements as given in patent US4735953A, “Pharmaceutical preparation for learning stimulation and memory improvement” (priority 1986, dated 1988).
# Tests used:
# [1] = tested on: learning ability of mice in a shuttle chamber; experiment: Learning ability of mice in a shuttle chamber; format: in vivo, mouse; conditions: mice
# [2] = tested on: learning ability of rats preliminarily sorted out for poor learning ability; experiment: Active avoidance learning in a shuttle chamber, rats sorted out for poor learning ability; format: in vivo, rat; conditions: poorly learning rats, hypodermally 2 mg/kg
# Source text: (§1) In these experiments rats are taught to avoid an electric shock by escaping into a next chamber communicating with the first chamber by means of a special opening--a door. An electric current is applied to the chamber door consisting of metal plates. A conditional irritator is a light signal together with a sound click. The learning series consisted of 50 combinations. The number of combinations necessary for the animal's learning to escape into another chamber in response to the conditional signal was determined. Five correct responses out of 6 where regarded as the proof of stability of the acquired knowledge and were denoted as a "learning criterion". After 7 days the educational procedure was repeated, and again the number of combinations necessary to acquire the "learning criterion" was determined. In the case of difference between the first and second readings the percentage of retention of the acquired knowledge was calculated.
# (§2) In this experiment the effect of the preparation according to the present invention and prior art preparations was separately evaluated for the purpose of comparison on well-learning and on specially selected poorly learning rats. […] To the poorly learning rats the animals were assigned which reached no "learning criterion" in the teaching series of 50 combinations, or, in other words, a stable knowledge of active avoidance was not worked out in them. […] The preparation according to the present invention and the prior art comparison preparations were administered before the first teaching series or thereafter.
# (§3) Also studied were the effects produced upon a single and repeated administration of the preparation according to the present invention for 14 days.
# [3] = tested on: cerebral cortex of rabbits; experiment: Asymmetry factor by induced potential in the hearing zone of the cerebral cortex; format: in vivo, rabbit
# Protocol: (§4) In the third series of experiments the effect of the preparation according to the present invention on the functional brain asymmetry was studied. The experiments were carried out on rabbits with electrodes implanted in the brain. The electrodes under nembutal narcosis (40 mg/kg) were implanted strictly symmetrically into the bearing zone of the temporal cortex of the right and left hemispheres on its lateral surface, whereas the indifferent electrode was secured to the nasal bones of a rabbit's skull. The acoustic irritation was applied through earphones. As the acoustic irritation a sound click caused by a square-shaped pulse from an electronic stimulator with a frequency of 0.1-0.2 Hz was used; the click intensity was adjusted within the range of from 5 to 80 Db. The amplification of the taken-off biopotentials was effected on an electroencephalograph; the induced potentials were obtained by means of an analyzer. 100 experiments on 20 animals were thus conducted; the interval between experiments on one animal was 7 days. The amplitude and form of the induced potential were determined. The asymmetry factor (Kas) was calculated by the formula: [formula] Ar --amplitude of the induced potential of the […] hemisphere, μV;
# (§5) A1 --amplitude of the induced potential of the left hemisphere.
# (§6) The test preparations were administered hypodermally in the form of 0.5-1.5% aqueous solutions 20 minutes before the beginning of the measurements.
# [4] = tested on: rabbit's brain hemispheres; experiment: Amplitude of induced potential in brain hemispheres (acoustic irritation); format: in vivo; conditions: rabbits
# Protocol: as §4, §5, §6
# [5] = tested on: learning ability of rats in a shuttle chamber; experiment: Active avoidance learning in a shuttle chamber, rats; format: in vivo, rat; conditions: rats, hypodermally 2 mg/kg
# Source text: as §1, §2, §3
# [6] = hypodermally 1 mg/kg, 12 day (retention)
# [7] = hypodermally 3 mg/kg, 12 day (retention)
compound,measurement,setting,value
Nc1ccncc1 [4-aminopyridine],retention of the knowledge of active avoidance (in words),[1],does not affect the retention of the knowledge of active avoidance
same,teaching (in words),[1],facilitates teaching
same,"% of avoidance reactions, group I","[1]; hypodermally 1 mg/kg, 1st day",17%
same,"% of avoidance reactions, group II","[1]; hypodermally 1 mg/kg, 1st day",21%
same,"% of avoidance reactions, group III","[1]; hypodermally 1 mg/kg, 1st day",38%
same,"% of avoidance reactions, group IV","[1]; hypodermally 1 mg/kg, 1st day",51%
same,"% of avoidance reactions, group V","[1]; hypodermally 1 mg/kg, 1st day",55%
same,"% of avoidance reactions, group VI","[1]; hypodermally 1 mg/kg, 1st day",60%
same,"% of avoidance reactions, group I",[1]; [6],48%
same,"% of avoidance reactions, group II",[1]; [6],70%
same,"% of avoidance reactions, group III",[1]; [6],72%
same,"% of avoidance reactions, group IV",[1]; [6],71%
same,"% of avoidance reactions, group V",[1]; [6],70%
same,"% of avoidance reactions, group VI",[1]; [6],75%
same,"% of avoidance reactions, group I","[1]; hypodermally 3 mg/kg, 1st day",20%
same,"% of avoidance reactions, group II","[1]; hypodermally 3 mg/kg, 1st day",30%
same,"% of avoidance reactions, group III","[1]; hypodermally 3 mg/kg, 1st day",54%
same,"% of avoidance reactions, group IV","[1]; hypodermally 3 mg/kg, 1st day",61%
same,"% of avoidance reactions, group V","[1]; hypodermally 3 mg/kg, 1st day",79%
same,"% of avoidance reactions, group VI","[1]; hypodermally 3 mg/kg, 1st day",82%
same,"% of avoidance reactions, group I",[1]; [7],46%
same,"% of avoidance reactions, group II",[1]; [7],73%
same,"% of avoidance reactions, group III",[1]; [7],74%
same,"% of avoidance reactions, group IV",[1]; [7],74%
same,"% of avoidance reactions, group V",[1]; [7],80%
same,"% of avoidance reactions, group VI",[1]; [7],80%
same,% of knowledge retention,[2],40.9%
same,"Number of combinations till appearance of ""learning criterion"", I teaching",[2],32.5 ± 2.8
same,"Number of combinations till appearance of ""learning criterion"", II-checking of retention of knowledge",[2],19.2 ± 1.7
same,Number of untaught animals in the group,[2],11/20
same,asymmetry factor (in words),[3],did not change or reduced the factor of asymmetry
same,"Asymmetry factor, Preparation","[3]; hypodermally 2 mg/kg, control 0.26 ± 0.06",0.12 ± 0.02
same,amplitude of induced potentials (in words),[4],increased amplitude of the induced potential
same,"Change of amplitude of induced potential, % of the control, left hemisphere",[4]; hypodermally 2 mg/kg,140%
same,"Change of amplitude of induced potential, % of the control, right hemisphere",[4]; hypodermally 2 mg/kg,175%
same,"Mean value of amplitude of induced potential, %",[4]; hypodermally 2 mg/kg,160%
same,"Number of combinations to reach the ""learning criterion"" in II teaching series (after 7 days)",[5],7.4 ± 1.2
same,"Number of combinations to reach the ""learning criterion"" in the I teaching series",[5],17.8 ± 1.2
same,Number of non-taught animals in the group,[5],0/20
same,Percentage knowledge retention,[5],60%
